Results reported in patent publication US20260240755A1, “Use Of Plant Cell Suspension Extracellular Vesicle-Derived Small Rnas As Cosmetic Active Ingredient” (ACTV BiYOTEKNOLOJi LABORATUVAR SANAYi VE TiCARET ANONiM …, priority 2023, published 2026).

Columns and labels:
[1] = tested on: H. cordata cell suspension; assay: Elicitor effect on amount of small RNA from cell suspension EVs; format: cell-based, Houttuynia cordata; settings: for amount of RNA obtained from nutrient medium EVs compared to the control group: elicitor added on the 14th day, 0.2-0.8 mM, 1-3 days
[2] = tested on: H. cordata cell suspension; assay: Elicitor effect on cell suspension biomass (lyophilized cell weight); format: cell-based, Houttuynia cordata; settings: elicitor treatment
Experimental: On the 14th day of the culture, the cell suspension medium was supplemented with 0.2-0.4 and 0.8 mM MeJA or SA, and the suspensions were subjected to additional incubation for 1, 2, and 3 days. After the incubation periods of H. cordata cell suspension cultures were completed, the cells were passed through a filter, and the cultures were terminated. Subsequently, cells from all groups were lyophilized. The weights of the lyophilized cells were measured and recorded.

Row | Compound | amount of RNA obtained from nutrient medium EVs compared to the control group [1] | quantity of H. cordata cell suspensions (lyophilized cell weight) compared to the control group [2] | amount of small RNA obtained ([1]; 0.2 mM MeJA for 72 hours) [ng/µL] | amount of small RNA relative to the control group ([1]; 0.2 mM MeJA for 72 hours) [times]
1 | O=C(O)c1ccccc1O [SA, Salicylic acid] | did not result in a significant increase | No statistically significant difference | – | –
2 | CC/C=C\CC1C(=O)CCC1CC(=O)OC (stereo not drawn) [MeJA, Methyl jasmonate] | led to an increase | No statistically significant difference | 3000 | 1.9
